Measured values published in patent publication US20130323284A1, “USE OF mTOR INHIBITORS TO TREAT BACTERIAL INFECTION” (JAZZYA INVESTMENTS, priority 2012, published 2013).

Tested on: CYLD
Assay: Immunoblot analysis of CYLD levels in Klebsiella pneumoniae infected cells
Type: cell-based
Conditions: U0126 10 mM; infected for 3 h; versus vehicle control
Procedure: An immunoblot analysis of CYLD levels in Klebsiella pneumoniae infected cells for 3 h in the presence of vehicle control (Kp) or PI3K inhibitor (LY294002, […]), AKT inhibitor ([…]), ERK inhibitor (U0126, […]) is shown. Membranes were reprobed for tubulin as a loading control.

N#CC(=C(/N)Sc1ccccc1N)/C(C#N)=C(\N)Sc1ccccc1N [U0126]
Klebsiella pneumoniae induced production of CYLD in the presence of inhibitor: PI3K-AKT-ERK dependent manner
